Assay results reported in patent US4719046A, “Crysene derivatives” (Burroughs Wellcome Co., priority 1984, dated 1988).
Counter-ions that a name gives are not always drawn.

Assays:
[1] = system: Streptococcus pyogenes (CN10); experiment: Antibacterial test, Streptococcus pyogenes (agar dilution); format: cell-based; details: agar dilution, CN10, read-out: MIC
Text: (§1) Anitbacterial testing against […] (S3264) and Streptococcus pyogenes (CN10) was done with slight modifications using standard agar dilution assays as outlined in Manual of Clinical Microbiology Second Ed., E. H. Lennette. E. H. Spaulding and J. P. Traunt Eds., American Society for Microbiology, Washington, DC, 1974

[2] = system: Candida albicans (CN 1863); experiment: Candida albicans antifungal test; format: cell-based; details: Wellcotest sensitivity test agar plus 7% lysed horse blood, CN1863
Text: Antifungal testing against Candida albicans (CN 1863) was done with slight modifications using a combination of broth and agar dilution assays as outlined in Laboratory Handbook of Medical Mycology, Chapter 6, pages 441-446, M. R. McGinnis, Academic Press, New York, NY, 1980
Medium: Wellcotest ® sensitivity test agar plus 7% lysed horse blood.

[3] = system: melanotic melanoma B16; experiment: Melanotic Melanoma B16 test; format: in vivo, mouse (B6C3-F1); details: median survival T/C; IP days 1, 5, 9; active if >125%; dose mg/kg: 1C 100, 6G 50, 3 70, 2 75, 18B 70
Text: Methods for evaluating the antitumor activity of these compounds are essentially those used in the Tumor Panel by the Developmental Therapeutics Program, Division of Cancer Treatment, National Cancer Institute, A. Goldin, et al., Methods in Cancer Research, Vol. XVI, p. 165, Academic Press (1979). Some modifications, in dose level and schedule have been made to increase the testing efficiency.
(§2) CD2-F1 mice, of the same sex, weighing 20±3 g, are used for this test. Control and test animals are injected intraperitoneally with a suspension of ~10^6 viable P388/0 tumor cells on day 0. In each test, several dose levels which bracket the LD20 of the compound are evaluated; each dose level group contains six animals. The test compounds are prepared either in physiologic saline containing 0.05% Tween 80 or distilled water containing 5% dextrose and are administered intraperitoneally on days 1, 5, and 9 relative to tumor implant. Doses are on a mg/kg basis according to individual animals' body weights. The day of death for each animal is recorded, the median identified for each group and the ratios of median survival time for treated (T)/control (C) groups are calculated. The criterion for activity is T/C×100≥120%.
B6C3-F1 mice of the same sex, weighing 20±3 g, are used for this test. A suspension of B16 cells is prepared from a non-necrotic portion of solid tumor tissue obtained from a passage mouse. One gram of tumor is homogenized in 9 mL ice-cold Earle's salts solution and filtered through 1000 mesh screen to remove debris. 0.5 mL of the resulting brei is injected intraperitoneally into each animal. Dosing is carried out as in the P388/0 and L1210 tests. Days of death are recorded for a 60 day period and T/C ratio calculated as in the P388/0 and L1210 tests. The criterion for activity is T/C×100>125%.

[4] = system: CD2-F1 mice; experiment: LD20 in the P388/0 test mice; format: in vivo, mouse (CD2-F1); details: IP days 1, 5, 9, doses on a mg/kg basis
Experimental: as §2
^A Values in parentheses are the highest nontoxic dose where the
LD20 was not determined.

[5] = system: Mycoplasma smegmatis; experiment: Antibacterial test, Mycoplasma smegmatis (agar dilution); format: cell-based
Text: as §1

C[C@H](O)[C@@](C)(CO)NCc1cc2c3ccccc3ccc2c2ccccc12 (relative stereo) [Example 6G, (+-)(2R*,3S*)-2-(6-Chrysenylmethylamino)-2-methyl-1,3-butanediol hydrochloride.1/3H2 O]
MIC [1]: 10 µg/mL | MIC [2]: 100 µg/mL | T/C × 100% Excluding 60 day Survivors [3]: +160% | LD20 [4]: 53 mg/kg | MIC [5]: ≤ 3 µg/mL
